Measured values as given in patent US20230263822A1, “MODULATION OF FACTOR 11 EXPRESSION” (Ionis Pharmaceuticals, Inc., priority 2008, published 2023).
pIC50: −log10 of the molar value. Strand notation (5' to 3'): a small letter for the sugar, then the base; units joined by * are phosphorothioate-linked, units joined directly phosphodiester-linked; [ ] holds rarer units or linkages, { } end groups; capitals alone tell only the bases. e = 2'-O-(2-methoxyethyl) (MOE); [5mC] = 5-methylcytosine; d = 2'-deoxy (DNA)

Experiments:
human Factor 11 mRNA [1] = experiment: Dose-dependent inhibition of human Factor 11 in HepG2 cells, lipofectin 9.375-75 nM (Example 4); format: cell-based; settings: for percent inhibition of Factor 11 at 9.375 nM / percent inhibition of Factor 11 at 18.75 nM / percent inhibition of Factor 11 at 37.5 nM / percent inhibition of Factor 11 at 75 nM: relative to untreated control cells
Outline: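 HepG2 cells transfected via lipofectin with antisense oligonucleotide at 9.375, 18.75, 37.5 or 75 nM for about 16 h. Factor 11 mRNA quantified by real-time RT-PCR (primer probe set RTS 2966) and normalized to total RNA (RIBOGREEN). Results expressed as percent inhibition versus untreated cells.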

human Factor 11 mRNA [2] = experiment: Dose-dependent inhibition of human Factor 11 in HepG2 cells, electroporation 0.7-20 uM (Example 4); format: cell-based; settings: for percent inhibition of Factor 11 at 0.7 μM / percent inhibition of Factor 11 at 2.2 μM / percent inhibition of Factor 11 at 6.7 μM / percent inhibition of Factor 11 at 20 μM: relative to untreated control cells
Outline: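 HepG2 cells electroporated with antisense gapmers at 0.7, 2.2, 6.7 and 20 μM, treated ~16 h. Factor 11 mRNA quantified by qRT-PCR (primer probe set RTS 2966), normalised to RIBOGREEN total RNA; expressed as percent inhibition versus untreated control cells.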

[3] = Tolerability in Sprague-Dawley rats: kidney function, urine protein/creatinine (Example 35); settings: for Urine protein/creatinine ratio: Sprague Dawley rats; for BUN / Creatinine: Sprague-Dawley rats, plasma
human Factor 11 mRNA [4] = experiment: Antisense inhibition of human Factor 11 in HepG2 cells, electroporation, 8,000 nM (Example 30); format: cell-based; settings: electroporation, 8,000 nM antisense oligonucleotide
Outline: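 HepG2 cells electroporated with 8,000 nM 5-10-5, 5-8-5 or 6-8-6 MOE gapmers (phosphorothioate, 5-methylcytidine), ~24 h. Factor 11 mRNA quantified by qRT-PCR, normalised to RIBOGREEN total RNA. Reported as percent inhibition versus untreated cells.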

[5] = After treatment, 50 mg/kg s.c. twice per week for 6 weeks
[6] = Before antisense oligonucleotide treatment
[7] = 50 mg/kg s.c. twice per week for 6 weeks

Substance	pIC50 (human Factor 11 mRNA [1])	percent inhibition of Factor 11 at 9.375 nM (human Factor 11 mRNA [1]) [%]	percent inhibition of Factor 11 at 18.75 nM (human Factor 11 mRNA [1]) [%]	percent inhibition of Factor 11 at 37.5 nM (human Factor 11 mRNA [1]) [%]	percent inhibition of Factor 11 at 75 nM (human Factor 11 mRNA [1]) [%]	pIC50 (human Factor 11 mRNA [2])	percent inhibition of Factor 11 at 0.7 μM (human Factor 11 mRNA [2]) [%]	percent inhibition of Factor 11 at 2.2 μM (human Factor 11 mRNA [2]) [%]	percent inhibition of Factor 11 at 6.7 μM (human Factor 11 mRNA [2]) [%]	percent inhibition of Factor 11 at 20 μM (human Factor 11 mRNA [2]) [%]	Urine protein/creatinine ratio [3, 5]	Urine protein/creatinine ratio [3, 6]	Percent inhibition of human Factor 11 mRNA levels (human Factor 11 mRNA [4]) [%]	BUN [3, 7] [mg/dL]	Creatinine [3, 7] [mg/dL]
416826 (antisense ATGCCCTTCATGTCTAGGTC; 5-10-5 gapmer, further chemistry not given here) [compound 416826]	7.54	8	36	58	84	5.49	2	47	86	82	11.4	1.0	–	–	–
416925 (antisense GGTGCACAGTTTCTGGCAGG; 3-14-3 gapmer chemistry, further chemistry not given here) [compound 416925]	7.52	13	38	59	75	5.41	0	40	76	80	4.3	1.0	–	–	–
413482 (antisense GGACGGCATTGGTGCACAGT; 5-10-5 MOE gapmer, further chemistry not given here) [compound 413482]	–	–	–	–	–	–	–	–	–	–	–	–	88	–	–
412224 (antisense GCATTGGTGCACAGTTTCTG; 5-10-5 MOE gapmer, further chemistry not given here) [compound 412224]	–	–	–	–	–	–	–	–	–	–	–	–	84	–	–
412223 (antisense ACAGTTTCTGGCAGGCCTCG; 5-10-5 MOE gapmer, further chemistry not given here) [compound 412223]	–	–	–	–	–	–	–	–	–	–	–	–	62	–	–
416856 (antisense GGCATTGGTGCACAGTTTCT; 5-10-5 gapmer, further chemistry not given here) [compound 416856]	7.57	21	45	58	74	5.29	0	29	47	93	–	–	84	–	–
416864 (antisense GGCAGCGGACGGCATTGGTG; 5-10-5 gapmer, further chemistry not given here) [compound 416864]	7.59	18	43	62	78	5.85	32	65	78	90	4.0	1.2	88	–	–
ISIS 416864: MOE gapmer, nucleobases 1275 to 1318 of SEQ ID NO: 1 (Table 8) (antisense GGCAGCGGACGGCATTGGTG; MOE gapmer, wing and gap sizes not given here)	–	–	–	–	–	–	–	–	–	–	–	–	–	5	6
416825 (antisense GCCCTTCATGTCTAGGTCCA; 5-10-5 gapmer, further chemistry not given here) [compound 416825]	7.70	23	52	73	92	5.89	27	74	92	98	5.4	1.1	90	–	–
412225 (antisense GCAGCGGACGGCATTGGTGC; 5-10-5 MOE gapmer, further chemistry not given here) [compound 412225]	–	–	–	–	–	–	–	–	–	–	–	–	86	–	–
417003 (antisense TGGTGCACAGTTTCTGGCAG; 2-13-5 gapmer chemistry, further chemistry not given here) [compound 417003]	7.48	26	44	60	56	5.41	0	34	75	89	4.8	0.9	–	–	–
416999 (antisense GCACAGTTTCTGGCAGGCCT; 2-13-5 gapmer chemistry, further chemistry not given here) [compound 416999]	7.52	24	37	55	73	5.55	20	42	77	88	9.1	1.3	–	–	–
ISIS 417002: MOE gapmer, nucleobases 1275 to 1318 of SEQ ID NO: 1 (Table 8) (antisense GGTGCACAGTTTCTGGCAGG; MOE gapmer, wing and gap sizes not given here)	–	–	–	–	–	–	–	–	–	–	–	–	–	11	1
416838 (antisense GCAACCGGGATGATGAGTGC; 5-10-5 gapmer, further chemistry not given here) [compound 416838]	7.72	31	51	64	86	5.29	5	30	55	83	3.7	1.2	–	–	–
417002 (antisense GGTGCACAGTTTCTGGCAGG; 2-13-5 gapmer chemistry, further chemistry not given here) [compound 417002]	7.72	35	52	67	70	5.66	32	38	82	91	2.4	1.0	–	–	–
416892 (antisense GCCCTTCATGTCTAGGTCCA; 3-14-3 chimeric gapmer, further chemistry not given here) [compound 416892]	7.64	16	50	70	85	5.60	14	52	82	92	21.3	0.8	–	–	–
412206 (antisense e[5mC]*e[5mC]*eG*eT*eG*d[5mC]*dA*dT*d[5mC]*dT*dT*dT*d[5mC]*dT*dT*eG*eG*e[5mC]*eA*eT) [compound 412206]	7.68	24	47	69	86	5.57	22	39	81	94	–	–	91	–	–
ISIS 416838: MOE gapmer, nucleobases 1018 to 1042 of SEQ ID NO: 1 (Table 6) (antisense GCAACCGGGATGATGAGTGC; MOE gapmer, wing and gap sizes not given here)	–	–	–	–	–	–	–	–	–	–	–	–	–	4	5
